Data published in patent US9346818B2 (priority 2012, dated 2016).
Where two headings read alike, the source gives them in different places.

Legend:
[1] = test system: learning and memory disorder of mice induced by scopolamine; test: Morris water maze test, senile dementia mice model induced by scopolamine; assay type: in vivo; conditions: for effect on learning and memory disorder of mice induced by scopolamine: Morris water maze, in comparison with model group / donepezil hydrochloride group; for latent period day 1 / latent period day 2 / latent period day 3 / latent period day 4 / latent period day 5 / times of crossing platform: scopolamine 1 mg/kg
[2] = biological target: acetylcholinesterase (Homo sapiens (Human), UniProt P22303); test: biochemical; assay type: biochemical; conditions: for potency on acetylcholinesterase compared with positive control drug donepezil hydrochloride: in vitro, enzymology level; for IC50: modified Ellman method
acetylcholinesterase, sequence (P22303 32-614, species assumed): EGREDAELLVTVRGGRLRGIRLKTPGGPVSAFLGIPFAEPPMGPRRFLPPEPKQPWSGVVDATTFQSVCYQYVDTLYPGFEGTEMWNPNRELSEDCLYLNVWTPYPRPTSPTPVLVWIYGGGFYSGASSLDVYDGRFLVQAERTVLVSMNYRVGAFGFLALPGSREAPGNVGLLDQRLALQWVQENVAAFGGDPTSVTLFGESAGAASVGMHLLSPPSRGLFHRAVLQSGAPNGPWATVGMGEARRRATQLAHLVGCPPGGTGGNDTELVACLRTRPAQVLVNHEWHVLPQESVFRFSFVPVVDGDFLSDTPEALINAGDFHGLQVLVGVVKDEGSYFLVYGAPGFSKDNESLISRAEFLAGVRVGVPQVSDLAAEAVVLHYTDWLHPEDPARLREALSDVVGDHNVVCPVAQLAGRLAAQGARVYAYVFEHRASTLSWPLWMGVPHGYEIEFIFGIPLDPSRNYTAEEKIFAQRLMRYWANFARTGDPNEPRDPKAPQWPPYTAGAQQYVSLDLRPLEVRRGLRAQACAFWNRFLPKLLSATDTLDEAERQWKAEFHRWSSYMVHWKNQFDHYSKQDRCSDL

[3] = test system: malonaldehyde (MDA); test: Biochemical indicators of brain tissues (MDA assay) in scopolamine mice; assay type: in vivo; conditions: brain tissue homogenate, 5 mg/kg
Protocol: After the behavior test was complete, the mice were sacrificed, brain tissues were collected (operated on an ice plate) and prepared into 10% of tissue homogenate with pre-cooled physiological saline, centrifuged (3000 rpm, 10 min), and the supernatant was subjected to malonaldehyde (MDA) assay following the kits.

[4] = read-out: IC50 (nM), inhibition activity on acetylcholinesterase

## O=C1c2cc3c(cc2C(=O)N1CCC1CCN(Cc2cccc(F)c2)CC1)OCO3 [Compound I-3, 6-[2-[1-[(3-fluorophenyl)methyl]-4-piperidyl]ethyl]-[1,3]dioxolo[4,5-f]isoindole-5,7-dione]
[1]
  effect on learning and memory disorder of mice induced by scopolamine: decreases significantly
[1]; Table 3, 5 mg/kg intragastric
  latent period day 1: 56.5 ± 8.5 s
  latent period day 2: 56.5 ± 8.6 s
  latent period day 3: 60 ± 0 s
  latent period day 4: 43.9 ± 15.4 s
  latent period day 5: 34.0 ± 19.5 s
  times of crossing platform: 1.9 ± 1.5
[1]; Table 3, 10 mg/kg intragastric
  latent period day 1: 59.3 ± 2.6 s
  latent period day 2: 56.3 ± 9.7 s
  latent period day 3: 55.5 ± 9.5 s
  latent period day 4: 49.4 ± 15.7 s
  latent period day 5: 45.0 ± 15.0 s
  times of crossing platform: 1.1 ± 1.1
[2]
  potency on acetylcholinesterase compared with positive control drug donepezil hydrochloride: slightly lower potency than the positive control drug
[2]; [4]
  IC50: 269 nM

## CC1(C)c2cc3c(cc2C(=O)N1CCC1CCN(Cc2cccc(F)c2)CC1)OCO3 [Compound I-15, 6-[2-[1-[(3-fluorophenyl)methyl]-4-piperidyl]ethyl]-7,7-dimethyl-[1,3]dioxolo[4,5-f]isoindol-5-one]
[3]
  MDA(nmol/mgprot): 7.41 ± 2.1 nmol/mgprot
[1]; Table 4, 5 mg/kg intragastric
  latent period day 1: 60 ± 0 s
  latent period day 2: 58.9 ± 4.4 s
  latent period day 3: 56.5 ± 8.3 s
  latent period day 4: 57.8 ± 5.3 s
  latent period day 5: 51.1 ± 10.9 s
  times of crossing platform: 1.9 ± 1.5
[2]
  potency on acetylcholinesterase compared with positive control drug donepezil hydrochloride: relative low activity
[2]; [4]
  IC50: > 2000 nM

## COc1cccc(CN2CCC(CCN3C(=O)c4cc5c(cc4C34CC4)OCO5)CC2)c1 [Compound I-27, 6-[2-[1-[(3-methoxyphenyl)methyl]-4-piperidyl]ethyl]spiro[[1, 3]dioxolo[4,5-f]isoindole-7,1′-cyclopropane]-5-one]
[2]
  potency on acetylcholinesterase compared with positive control drug donepezil hydrochloride: relative low activity
[2]; [4]
  IC50: > 2000 nM

## O=C1c2cc3c(cc2C2(CC2)N1CCC1CCN(Cc2cccc(F)c2)CC1)OCO3 [Compound I-19, 6-[2-[1-[(3-fluorophenyl)methyl]-4-piperidyl]ethyl]spiro[[1,3]dioxolo[4,5-f]isoindole-7,1′-cyclopropane]-5-one]
[1]
  effect on learning and memory disorder of mice induced by scopolamine: can improve the learning and memory disorder of the animals induced by scopolamine
[1]; Table 2, 5 mg/kg intragastric
  latent period day 1: 60 ± 0 s
  latent period day 2: 60 ± 0 s
  latent period day 3: 55.2 ± 11.8 s
  latent period day 4: 57.3 ± 10.4 s
  latent period day 5: 53.9 ± 12.4 s
  times of crossing platform: 0.8 ± 1.4
[2]
  potency on acetylcholinesterase compared with positive control drug donepezil hydrochloride: even lower
[2]; [4]
  IC50: 376 nM

## O=C1c2cc3c(cc2C2(CC2)N1CCC1CCN(Cc2ccc(F)cc2)CC1)OCO3 [Compound I-20, 6-[2-[1-[(4-fluorophenyl)methyl]-4-piperidyl]ethyl]spiro[[1,3]dioxolo[4,5-f]isoindole-7,1′-cyclopropane]-5-one]
[2]
  potency on acetylcholinesterase compared with positive control drug donepezil hydrochloride: even lower
[2]; [4]
  IC50: 706 nM

## CC1(C)c2cc3c(cc2C(=O)N1CCC1CCN(Cc2ccccc2)CC1)OCO3 [Compound I-13, 6-[2-(1-benzyl-4-piperidyl)ethyl]-7,7-dimethyl-[1,3]dioxolo[4,5-f]isoindol-5-one]
[2]; IC50 (nM), inhibition activity on acetylcholinesterase
  IC50: > 2000 nM
[2]
  potency on acetylcholinesterase compared with positive control drug donepezil hydrochloride: relative low activity
